Assay results from PubChem BioAssay (NCI).
Several values for one entry are separate records, joined by “and”; a condition that tells them apart may be missing. Equal values may be shown once.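 Compound exposure: 48 hours, 5 concentrations, 96-well plates. GI50 marks 50% less growth. Definition used: TGI = concentration required for complete inhibition of growth.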

Key:
Assay in all cases: DTP human tumour cell line panel, 48 h
MCF7 breast = test system: MCF7 breast
HCC-2998 colon = test system: HCC-2998 colon
SNB-19 CNS = test system: SNB-19 CNS
HCT-15 colon = test system: HCT-15 colon
SK-MEL-5 melanoma = test system: SK-MEL-5 melanoma
NCI-H226 lung = test system: NCI-H226 lung
SNB-75 CNS = test system: SNB-75 CNS
KM12 colon = test system: KM12 colon
HS 578T breast = test system: HS 578T breast
K-562 leukemia = test system: K-562 leukemia

Structure (SMILES) | GI50 (MCF7 breast) | TGI (MCF7 breast) | GI50 (HCC-2998 colon) | TGI (HCC-2998 colon) | GI50 (SNB-19 CNS) | TGI (SNB-19 CNS) | GI50 (HCT-15 colon) | TGI (HCT-15 colon) | GI50 (SK-MEL-5 melanoma) | TGI (SK-MEL-5 melanoma) | GI50 (NCI-H226 lung) | TGI (NCI-H226 lung) | GI50 (SNB-75 CNS) | TGI (SNB-75 CNS) | GI50 (KM12 colon) | TGI (KM12 colon) | GI50 (HS 578T breast) | TGI (HS 578T breast) | GI50 (K-562 leukemia) | TGI (K-562 leukemia)
Cc1nn(-c2ccccc2)c2ncc3c(c12)C(=O)N(Cc1ccccc1)C3=O | > 100 µM | > 100 µM | > 100 µM | > 100 µM | 12.7 µM | > 100 µM | > 100 µM | > 100 µM | > 100 µM | > 100 µM | 3.46 µM | 13 µM | 2.23 µM | 6.64 µM | > 100 µM | > 100 µM | 2.98 µM | > 100 µM | 3.73 µM | 41.9 µM
CN1CCN(Cc2ccc(NC(=O)c3cncc(C#Cc4c(N)ncc5ccc(F)cc45)c3)cc2C(F)(F)F)CC1 | 0.297 µM | 1.53 µM | 0.653 µM | 9.66 µM | 3.47 µM | 12 µM | 0.487 µM | 6.85 µM | 0.69 µM | 1.36 µM | 0.4 µM | 1.75 µM | 0.721 µM | 2.66 µM | 0.005 µM | 0.939 µM | 0.512 µM | 1.93 µM | 0.005 µM | 1.07 µM
COc1ccc(-c2nccn2-c2cc(OC)c(OC)c(OC)c2)cc1 | 1.27 µM | > 100 µM | 1.09 µM | 39.9 µM | 4.77 µM | > 35.6 µM | 1.16 µM | > 100 µM | 0.758 µM | > 69.5 µM | 14.6 µM | > 100 µM | 1.51 µM | > 76.3 µM | 0.451 µM | > 100 µM | 8.9 µM | > 77.6 µM | 1.5 µM | > 100 µM
C[CH2][Ge]1([CH2]C)[CH2]CC2(CCN(CCCN(C)C)C2)C[CH2]1 | 0.99 µM and 2.42 µM | 2.69 µM and 4.05 µM | 0.21 µM and 1.68 µM | 0.543 µM and 3.8 µM | 2.21 µM and 4.46 µM | 5.57 µM and 9.89 µM | 1.07 µM and 1.51 µM | 2.74 µM and 2.65 µM | 0.444 µM and 1.44 µM | 1.13 µM and 2.22 µM | 2.24 µM and 17.3 µM | 4.92 µM and 32.1 µM | 0.175 µM and 1.48 µM | 1.84 µM and 3.24 µM | 1.83 µM and 10.2 µM | 4.02 µM and 22.2 µM | 1.57 µM | 3.3 µM | 0.237 µM and 1.11 µM | 2.36 µM and 5.13 µM
COc1ccc(N2CCN(CC(=O)N3CCN(c4nnc(-c5ccc(Cl)cc5)c(-c5ccc(Cl)cc5)n4)CC3)CC2)cc1 | 3.91 µM | > 100 µM | 9.94 µM | > 100 µM | > 100 µM | > 100 µM | 6.8 µM | > 100 µM | 5.52 µM | 52.4 µM | > 100 µM | > 100 µM | 13.2 µM | 55.4 µM | 4.86 µM | > 100 µM | > 100 µM | > 100 µM | 5.8 µM | > 100 µM
CCS(=O)(=O)Nc1ccc(Oc2ccc(F)cc2F)c(-c2cn(C)c(=O)c3[nH]ccc23)c1 | < 0.01 µM | 14.3 µM | 0.0342 µM | 1.38 µM | 0.31 µM | 30.9 µM | 0.0404 µM | 19.5 µM | 0.0727 µM | 7.29 µM | 2.46 µM | 20.2 µM | < 0.01 µM | 0.986 µM | 0.109 µM | 18.2 µM | < 0.0183 µM | 36.5 µM | 0.0322 µM | > 62.6 µM
CN(C)CCCn1c2c(c3ccc([N+](=O)[O-])cc3c1=O)C(=O)c1ccccc1-2 | 2.41 µM | > 100 µM | 15.3 µM | 41.7 µM | 19.1 µM | > 100 µM | 10.6 µM | 35.8 µM | 3.79 µM | 16.6 µM | 6.82 µM | 24 µM | 5.24 µM | 19.3 µM | 28.4 µM | > 100 µM | 41.3 µM | > 100 µM | 6.05 µM | > 100 µM
CCN(CC)CCCC(C)NC(=S)N/N=C(\C)c1ccccn1 (stereo not given) | 2.94 µM | > 100 µM | 3.52 µM | > 100 µM | 7.83 µM | > 100 µM | 2.49 µM | > 100 µM | 1.7 µM | 4.2 µM | 2.28 µM | 21.2 µM | 7.55 µM | > 100 µM | 4.02 µM | > 100 µM | 43.9 µM | > 100 µM | 3.08 µM | > 100 µM
CCCCc1ccc(C(N)=O)nc1 | > 100 µM | > 100 µM | > 100 µM | > 100 µM | > 100 µM | > 100 µM | > 100 µM | > 100 µM | > 100 µM | > 100 µM | > 100 µM | > 100 µM | > 100 µM | > 100 µM | > 100 µM | > 100 µM | 20 µM | > 100 µM | > 100 µM | > 100 µM
CC(CCC/C=C/CCCN(C)C(=N)N)CC(C)C1OC(=O)C(C)C(O)/C=C/C(C)C(O)C(C)C(O)C(C)C(O)CCCC(O)CC2(O)OC(CC(OC(=O)CC(=O)O)CC(O)CC(O)C(C)C(O)/C=C/C=C/C1C)CC(O)C2O (stereo not given) | 1.79 µM and 3.53 µg/mL | 3.67 µM and 14 µg/mL | 3.18 µM and 10.9 µg/mL | 12.1 µM and 23.4 µg/mL | 4.9 µM and 10.1 µg/mL | 17 µM and 21.8 µg/mL | 2.35 µM and 11.9 µg/mL | 5.33 µM and 28.9 µg/mL | 1.75 µM and 1.48 µg/mL | 3.18 µM and 3.33 µg/mL | 6.21 µM and 14.1 µg/mL | 24.2 µM and 26.9 µg/mL | 2.05 µM and 1.34 µg/mL | 4.94 µM and 7.44 µg/mL | 1.88 µM and 2.62 µg/mL | 3.37 µM and 9.79 µg/mL | 2.56 µM and 2.5 µg/mL | 7.84 µM and 12.9 µg/mL | 3.13 µM and 10.4 µg/mL | 7.16 µM and 75 µg/mL
COc1ccc(/C=C2\CC(C)CC3C2=NN(C(C)=O)C3c2ccc(OC)c(OC)c2)cc1OC (stereo not given) | 14.4 µM | 30.6 µM | 12 µM | 24.3 µM | 17.7 µM | 39.4 µM | 15.4 µM | 32.8 µM | 12.7 µM | 27.4 µM | 18.8 µM | > 100 µM | 24.8 µM | 54.3 µM | 19.7 µM | 42.1 µM | 26.2 µM | 61.3 µM | 13 µM | > 100 µM
Nc1cc2[nH]c(=O)c3cc(Cl)ccc3c2cc1Cl | – | 13.8 µM | – | > 100 µM | – | 37.2 µM | – | > 100 µM | – | 27 µM | – | 28.1 µM | – | 61.8 µM | – | > 100 µM | – | > 100 µM | – | > 100 µM
C/C(=C1/N=C(c2ccccc2)OC1=O)c1cccs1 | – | > 100 µM | – | > 100 µM | – | > 100 µM | – | > 100 µM | – | > 100 µM | – | > 100 µM | – | > 100 µM | – | > 100 µM | – | > 100 µM | – | > 100 µM
COc1ccc(/C=C2\CN(Cc3cn(CCCNc4ccnc5cc(Cl)ccc45)nn3)C/C(=C\c3ccc(OC)cc3)C2=O)cc1 | 2.01 µM | 10.1 µM | 13.8 µM | 27.9 µM | 15.7 µM | 36.1 µM | 1.83 µM | 5.14 µM | 10.5 µM | 22.3 µM | 25.5 µM | > 100 µM | 3.89 µM | 19.7 µM | 1.66 µM | 3.39 µM | 6.27 µM | 29.7 µM | 2.65 µM | 11.7 µM
COc1ccc(/C(C)=C(\c2ccc(Cl)cc2)c2ccc(OCCN3CCCCC3)cc2)cc1F | 3.34 µM | 8.24 µM | 3.21 µM | 7.14 µM | 5.37 µM | > 16.7 µM | 0.943 µM | 3.37 µM | 2.76 µM | 5.1 µM | 4.35 µM | > 16.7 µM | 4.29 µM | 13.1 µM | 1.97 µM | 6.23 µM | 2.83 µM | 6.78 µM | 0.698 µM | 5.93 µM
Cn1c([N+](=O)[O-])cnc1/C=C1\Oc2ccc(Cl)cc2C1=O | 0.485 µM | 4.42 µM | 2.02 µM | 4.68 µM | 1.77 µM | 6.95 µM | 0.251 µM | 1.04 µM | 0.727 µM | 2.14 µM | 1.64 µM | 4.64 µM | 0.63 µM | 2.27 µM | 0.36 µM | 1.47 µM | 1.83 µM | > 24.1 µM | 0.765 µM | > 26.9 µM
COc1cc(C2C3=C(COC3=O)N(CCO)c3cc4c(cc32)CCC4)cc(OC)c1OC (stereo not given) | 0.0986 µM | 23.8 µM | 0.0693 µM | 0.164 µM | 0.0946 µM | 6.38 µM | 0.199 µM | > 32.5 µM | 0.0956 µM | 0.451 µM | 0.417 µM | > 32.5 µM | 0.123 µM | > 32.5 µM | 0.0707 µM | 0.29 µM | 0.104 µM | > 32.5 µM | 0.0955 µM | > 10.4 µM
O=C(/C=C\c1ccc(Cl)c(Cl)c1)c1ccccc1 | 1.89 µM | 5.58 µM | 4.75 µM | 16.9 µM | 10.6 µM | 23.6 µM | 2.84 µM | 10.3 µM | 16.7 µM | 30.9 µM | 13.9 µM | 30.7 µM | 11.6 µM | 23.8 µM | 3.07 µM | 8.88 µM | 17 µM | 52.5 µM | 2.82 µM | 8.1 µM
